Test results as given in patent US12319640B2, “Cyclic diones as herbicidal compounds” (SYNGENTA CROP PROTECTION AG, priority 2019, dated 2025).

Legend:
Assay in all cases: Glasshouse herbicide test, pre- and post-emergence
Assay type in all cases: in vivo
[1] = test system: Avena fatua (AVEFA); conditions: 250 g/h, evaluated after 13 days, five-point scale; for percentage damage caused to the plant, AVEFA POST: post-emergence; for percentage damage caused to the plant, AVEFA PRE: pre-emergence
In short: (§1)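 Percentage plant damage, scored 13 days after treatment as 5=80-100%, 4=60-79%, 3=40-59%, 2=20-39%, 1=0-19%. Spray of 250 g/h in acetone/water 50:50 plus 0.5% Tween 20 went on one day (pre-emergence) or eight days (post-emergence) after sowing.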

[2] = test system: Setaria faberi (SETFA); conditions: 250 g/h, evaluated after 13 days, five-point scale; for percentage damage caused to the plant, SETFA POST: post-emergence; for percentage damage caused to the plant, SETFA PRE: pre-emergence
In short: as §1

[3] = test system: Alopecurus myosuroides (ALOMY); conditions: 250 g/h, evaluated after 13 days, five-point scale; for percentage damage caused to the plant, ALOMY POST: post-emergence; for percentage damage caused to the plant, ALOMY PRE: pre-emergence
In short: as §1

[4] = test system: Lolium perenne (LOLPE); conditions: 250 g/h, evaluated after 13 days, five-point scale; for percentage damage caused to the plant, LOLPE POST: post-emergence; for percentage damage caused to the plant, LOLPE PRE: pre-emergence
In short: as §1

[5] = test system: Echinochloa crus-galli (ECHCG); conditions: 250 g/h, evaluated after 13 days, five-point scale; for percentage damage caused to the plant, ECHCG POST: post-emergence; for percentage damage caused to the plant, ECHCG PRE: pre-emergence
In short: as §1

Row | Compound | percentage damage caused to the plant, AVEFA POST [1] | percentage damage caused to the plant, AVEFA PRE [1] | percentage damage caused to the plant, SETFA POST [2] | percentage damage caused to the plant, SETFA PRE [2] | percentage damage caused to the plant, ALOMY POST [3] | percentage damage caused to the plant, ALOMY PRE [3] | percentage damage caused to the plant, LOLPE POST [4] | percentage damage caused to the plant, LOLPE PRE [4] | percentage damage caused to the plant, ECHCG POST [5] | percentage damage caused to the plant, ECHCG PRE [5]
1 | CC#Cc1cc(C)c(C2C(=O)CC3(CCC(C(=O)N(C)CCO)CC3)CC2=O)c(C)c1 (stereo not drawn) [Compound 1.009] | 5 (5=80-100%) | 3 (3=40-59%) | 5 (5=80-100%) | 3 (3=40-59%) | 5 (5=80-100%) | 4 (4=60-79%) | 5 (5=80-100%) | 5 (5=80-100%) | 5 (5=80-100%) | 4 (4=60-79%)
2 | CC#Cc1cc(C)c(C2=C(OC(=O)OC)CC3(CCC(C(=O)NC)CC3)CC2=O)c(C)c1 (stereo not drawn) [Compound P1.001] | 5 (5=80-100%) | 5 (5=80-100%) | 5 (5=80-100%) | 5 (5=80-100%) | 5 (5=80-100%) | 5 (5=80-100%) | 5 (5=80-100%) | 5 (5=80-100%) | 5 (5=80-100%) | 5 (5=80-100%)
3 | CC#Cc1cc(C)c(C2C(=O)CC3(CCC(NC(C)=O)C3)CC2=O)c(C)c1 (stereo not drawn) [Compound 2.024] | 5 (5=80-100%) | 5 (5=80-100%) | 5 (5=80-100%) | 5 (5=80-100%) | 5 (5=80-100%) | 5 (5=80-100%) | 5 (5=80-100%) | 5 (5=80-100%) | 5 (5=80-100%) | 5 (5=80-100%)
4 | CC#Cc1cc(C)c(C2C(=O)CC3(CCC(NC(=O)c4nccnc4C)CC3)CC2=O)c(C)c1 (stereo not drawn) [Compound 2.015] | 5 (5=80-100%) | 5 (5=80-100%) | 5 (5=80-100%) | 5 (5=80-100%) | 5 (5=80-100%) | 4 (4=60-79%) | 5 (5=80-100%) | 5 (5=80-100%) | 5 (5=80-100%) | 5 (5=80-100%)
5 | CC(=O)NC1CCC2(CC1)CC(=O)C(c1c(C)cc(-c3ccc(F)cn3)cc1C)C(=O)C2 (stereo not drawn) [Compound 2.032] | 5 (5=80-100%) | 4 (4=60-79%) | 5 (5=80-100%) | 5 (5=80-100%) | 5 (5=80-100%) | 5 (5=80-100%) | 5 (5=80-100%) | 5 (5=80-100%) | 5 (5=80-100%) | 5 (5=80-100%)
6 | CC#Cc1cc(C)c(C2C(=O)CC3(CCC(NC(C)=O)CC3)CC2=O)c(OC)c1 (stereo not drawn) [Compound 2.003] | 5 (5=80-100%) | 5 (5=80-100%) | 5 (5=80-100%) | 5 (5=80-100%) | 5 (5=80-100%) | 5 (5=80-100%) | 5 (5=80-100%) | 5 (5=80-100%) | 5 (5=80-100%) | 5 (5=80-100%)
7 | CC#Cc1cc(C)c(C2C(=O)CC3(CC2=O)CC(NC(C)=O)C3)c(C)c1 (stereo not drawn) [Compound 2.025] | 5 (5=80-100%) | 5 (5=80-100%) | 5 (5=80-100%) | 5 (5=80-100%) | 5 (5=80-100%) | 5 (5=80-100%) | 5 (5=80-100%) | 5 (5=80-100%) | 5 (5=80-100%) | 5 (5=80-100%)
8 | CC#Cc1cc(C)c(C2C(=O)CC3(CCC(NC(=O)COC(F)F)CC3)CC2=O)c(C)c1 (stereo not drawn) [Compound 2.008] | 5 (5=80-100%) | 5 (5=80-100%) | 5 (5=80-100%) | 5 (5=80-100%) | 5 (5=80-100%) | 5 (5=80-100%) | 5 (5=80-100%) | 5 (5=80-100%) | 5 (5=80-100%) | 5 (5=80-100%)
9 | CC(=O)NC1CCC2(CC1)CC(=O)C(c1c(C)cc(-c3ccc(C#N)cn3)cc1C)C(=O)C2 (stereo not drawn) [Compound 2.030] | 5 (5=80-100%) | 5 (5=80-100%) | 5 (5=80-100%) | 5 (5=80-100%) | 5 (5=80-100%) | 4 (4=60-79%) | 5 (5=80-100%) | 5 (5=80-100%) | 5 (5=80-100%) | 5 (5=80-100%)
10 | CC#Cc1cc(C)c(C2C(=O)CC3(CCC(C(=O)NC)CC3)CC2=O)c(C)c1 (stereo not drawn) [Compound 1.002, 3-(2,6-dimethyl-4-prop-1-ynyl-phenyl)-N-methyl-2,4-dioxo-spiro[5.5]undecane-9-carboxamide] | 5 (5=80-100%) | 5 (5=80-100%) | 5 (5=80-100%) | 5 (5=80-100%) | 5 (5=80-100%) | 5 (5=80-100%) | 5 (5=80-100%) | 5 (5=80-100%) | 5 (5=80-100%) | 5 (5=80-100%)
11 | CC#Cc1cc(C)c(C2C(=O)CC3(CCC(NC(=O)c4cnco4)CC3)CC2=O)c(C)c1 (stereo not drawn) [Compound 2.016] | 5 (5=80-100%) | 4 (4=60-79%) | 5 (5=80-100%) | 5 (5=80-100%) | 4 (4=60-79%) | 3 (3=40-59%) | 5 (5=80-100%) | 5 (5=80-100%) | 5 (5=80-100%) | 5 (5=80-100%)
12 | CC#Cc1cc(C)c(C2C(=O)CC3(CCC(NC(=O)c4ccccn4)CC3)CC2=O)c(C)c1 (stereo not drawn) [Compound 2.006] | 5 (5=80-100%) | 4 (4=60-79%) | 5 (5=80-100%) | 5 (5=80-100%) | 5 (5=80-100%) | 5 (5=80-100%) | 5 (5=80-100%) | 5 (5=80-100%) | 5 (5=80-100%) | 5 (5=80-100%)
